Measured values: PMC3169616, “Unique Residues Involved in Activation of the Multitasking Protease/Chaperone HtrA from Chlamydia trachomatis” (PLoS ONE, 2011)

Tests used:
CtHtrA [1] = molecular target: T1, CtHtrA (Chlamydia trachomatis serovar D, UniProt P18584); assay: Activation of CtHtrA cleavage of pNA peptides by added activator peptide; type: biochemical; conditions: data not shown
T1 construct: His-tag; made in house; host or cells: E. coli BL21 (DE3), plasmid pETHtrA
T1 sequence (P18584 17-497): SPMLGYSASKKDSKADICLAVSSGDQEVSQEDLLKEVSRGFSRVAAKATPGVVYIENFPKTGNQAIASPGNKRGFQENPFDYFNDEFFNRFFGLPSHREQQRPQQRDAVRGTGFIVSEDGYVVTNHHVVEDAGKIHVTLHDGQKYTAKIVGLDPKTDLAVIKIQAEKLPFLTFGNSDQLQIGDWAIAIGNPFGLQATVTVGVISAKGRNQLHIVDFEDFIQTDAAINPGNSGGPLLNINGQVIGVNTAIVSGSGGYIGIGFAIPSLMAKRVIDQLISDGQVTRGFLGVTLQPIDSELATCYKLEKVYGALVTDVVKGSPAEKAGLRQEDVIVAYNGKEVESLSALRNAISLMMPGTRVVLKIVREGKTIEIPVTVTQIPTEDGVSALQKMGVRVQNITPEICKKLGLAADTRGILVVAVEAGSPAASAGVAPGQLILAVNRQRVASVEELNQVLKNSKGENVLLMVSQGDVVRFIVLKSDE
Protocol: (§1) To determine if the addition of a second peptide to the protease assays could activate or increase CtHtrA proteolysis, two activator peptides were tested in the CtHtrA cleavage of the model ß-casein peptide substrate Bcas1. The first was based on the ß-casein C-terminal sequence (Act1: NH2-VLGPVRGPFPIIV-OH) and the second on insulin b chain C-terminal sequence (Act2: NH2-CGELGFFYTP-OH).
One explanation for the observation of a lack of activation for some substrates could be that these substrates act as both activators and substrates by binding to both the active and allosteric sites of CtHtrA. In particular, the pNA peptides were not activated, which could imply that the pNA moiety itself may bind at the activation site. […]
The purified recombinant protein was examined by Coomassie stained polyacrylamide gels and activity was checked using ß-casein cleavage assays prior to use in peptide assays. […] Protease assays using pNA labelled peptides were conducted using the xMARK Microplate spectrophotometer (Bio-Rad) at 405 nm, incubated at 37°C, with a reading taken every 10 s for 30 min. The maximum slope over a minimum of 8 readings was used for the data analysis. […] The assays were excited at 340 nm and emission was detected at 405 nm with a gain of 1000, the assays were monitored every 20 s or at the minimum cycle time for up to 40 min. […]

CtHtrA [2] = molecular target: T1, CtHtrA; assay: Activation of CtHtrA cleavage of Bcas1 substrate by added activator; type: biochemical; conditions: substrate Bcas1 (MCA-ENLHLPLPIIF-DNP), fluorimetric, 37°C
Protocol: as §1
Finally, in order to determine if the 24-mer (highest amount with MOMP protein, or Act1), or 12-mer, or both, corresponds to enhanced protease activity, the incubations of CtHtrA and these potential in vivo activators were used for protease assays with the Bcas1 substrate (Fig. 6). […] The presence of the majority of CtHtrA as higher order oligomers correlated with an increased rate of proteolysis for CtHtrA, particularly when these oligomers were predominately 24-mers.
The purified recombinant protein was examined by Coomassie stained polyacrylamide gels and activity was checked using ß-casein cleavage assays prior to use in peptide assays. Briefly, this involved incubating 2 µg of the protease with 10 µg of ß-casein in 50 mM Tris pH 7.0, 20 mM MgCl2 for 2 h prior to examining the assays by SDS PAGE (ß-casein and protease only controls were always conducted). Protease assays using peptides were conducted using custom synthesised peptides (Mimotopes). […] Protease assays using pNA labelled peptides were conducted using the xMARK Microplate spectrophotometer (Bio-Rad) at 405 nm, incubated at 37°C, with a reading taken every 10 s for 30 min. The maximum slope over a minimum of 8 readings was used for the data analysis. […] The assays were excited at 340 nm and emission was detected at 405 nm with a gain of 1000, the assays were monitored every 20 s or at the minimum cycle time for up to 40 min. […] The assay results shown for the fluorescent compounds have been normalised for the amount of fluorescent emission detected using a standard curve of known concentrations of the MCA fluorophore under the identical assay conditions. […]

## QNIPF
CtHtrA [1]
  effect of activator peptide on CtHtrA cleavage of pNA peptides: did activate the cleavage of some of the pNA peptides tested
CtHtrA [2]
  effect of activator on rate of CtHtrA proteolysis of Bcas1: did not activate CtHtrA cleavage of Bcas1
